Among the test systems are SNB-19; IGROV-1; MOLT-4; A549; EKVX; CAKI-1; SW-620; RXF 393; HCC 2998; SNB-75; HT-29; SF-295; SK-MEL-5; NCI-H460; RPMI-8226; UACC-62; UO-31; K562; OVCAR-5; NCI-H522.
Common to all, as to experiment: DTP human tumour cell line panel, 48 h

Seven molecules from ChEMBL document CHEMBL1201862, “PubChem BioAssay data set” (2004) can be followed below.

SMILES strings stand for the structures.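 1) Cells in 96-well plates. 2) Compound, 48 h, 5 concentrations. 3) Linear interpolation between surrounding doses. 4) Unreached endpoint = highest concentration. GI50 is the concentration that inhibits growth by half.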 Calls of active or inactive are those of the source. No stated cut-off is given here; in the data, active = GI50 up to about 1.1 µM and inactive = higher. A value given as a limit tells only on which side of the number the result lay.

In the case of `COC(=O)C1=C(C)N2CCCOC2(C)C(C(=O)OC)C1c1cccc(Cl)c1` (stereo not drawn), the GI50 – broadly, the concentration giving 50% growth inhibition – was 42.3 µM (inactive) in the test on SNB-19; 25.7 µM (inactive) in the test on IGROV-1; 16.7 µM (inactive) with MOLT-4; > 100 µM (inactive) in the test on A549; 14 µM (inactive) in the test on EKVX; 17.5 µM (inactive) in the test with CAKI-1. Besides, the GI50 is > 100 µM (inactive) in the test with SW-620; 33.1 µM (inactive) with RXF 393; 35.3 µM (inactive) with HCC 2998; 0.452 µM (active) with SNB-75; 22.2 µM (inactive) in the test on HT-29; 21.7 µM (inactive) with SF-295. In addition, the GI50 was > 100 µM (inactive) in the test on SK-MEL-5; 20.5 µM (inactive) with NCI-H460; 14.3 µM (inactive) with RPMI-8226; 15.2 µM (inactive) in the test with UACC-62; 22.3 µM (inactive) with UO-31; 27.2 µM (inactive) in the test on K562.

`O=S(O)c1cc(Cl)c(O)c(Cl)c1`: the GI50 in the test on OVCAR-5, with SNB-19, in the test on MOLT-4, with NCI-H522, in the test with EKVX and with RXF 393 was > 100 µM (inactive) throughout. Also, the GI50 in the test on HCC 2998, with SNB-75, in the test with HT-29, in the test on NCI-H460, in the test with UACC-62 and in the test on UO-31 was > 100 µM (inactive) throughout. The GI50 with K562 is > 100 µM (inactive).

`COc1ccc(/C(C=O)=C(\Cl)c2ccc(OC)c(OC)c2)cc1`: the GI50 in the test with OVCAR-5 is > 100 µM (inactive); in the test on SNB-19, > 100 µM (inactive); in the test with IGROV-1, > 100 µM (inactive); in the test on MOLT-4, 87.3 µM (inactive); in the test on A549, > 100 µM (inactive); in the test on NCI-H522, 5.83 µM (inactive). In addition, the GI50 is > 100 µM (inactive) in the test with EKVX; > 100 µM (inactive) in the test on CAKI-1; > 100 µM (inactive) in the test with SW-620; > 100 µM (inactive) in the test on RXF 393; > 100 µM (inactive) in the test with HCC 2998; 22.6 µM (inactive) in the test on SNB-75. The GI50 with HT-29, in the test on SF-295, with SK-MEL-5, with NCI-H460, with RPMI-8226 and with UACC-62 was > 100 µM (inactive) each time. Further, the results for the GI50 in the test on UO-31 and in the test with K562 were > 100 µM (inactive) and 62.8 µM (inactive), respectively.

In the case of `CCCCC#CS(=O)(=O)C(F)(F)F`, the GI50 in the test with OVCAR-5 is > 100 µM (inactive); in the test on SNB-19 it was > 90.2 µM (inactive); in the test with IGROV-1, > 100 µM (inactive); in the test on MOLT-4, 33.1 µM (inactive); in the test on A549, > 78.9 µM (inactive); with NCI-H522 it was 36.1 µM (inactive). The GI50 in the test with EKVX was > 100 µM (inactive); in the test with CAKI-1 it was 0.605 µM (active); in the test with SW-620 it was > 100 µM (inactive); with RXF 393, 20.4 µM (inactive); with HCC 2998, > 31.6 µM (inactive); with SNB-75, 36.6 µM (inactive). Also, the GI50 in the test with HT-29 is 22.4 µM (inactive); with SF-295, 20.3 µM (inactive); in the test on SK-MEL-5 it was 52.7 µM (inactive); in the test with NCI-H460 it was > 92.5 µM (inactive); in the test on RPMI-8226 it was 47.4 µM (inactive); with UACC-62 it was 48.2 µM (inactive). In addition, the GI50 with UO-31 is 68.9 µM (inactive); in the test with K562 it was 45.4 µM (inactive).

On to `COC1/C=C\C=C(/C)C(=O)NC2=CC(=O)C=C(C2=O)C(OC)C(C)CC(OC)C(OC)C(C)/C=C(/C)C1OC(N)=O` (stereo not drawn), for which the GI50 was 15.3 µM (inactive) in the test with OVCAR-5; 14.1 µM (inactive) in the test on SNB-19; 12.7 µM (inactive) in the test with IGROV-1; 0.214 µM (active) in the test with MOLT-4; 16.7 µM (inactive) in the test on A549; 0.231 µM (active) with NCI-H522. Moreover, the GI50 with EKVX was 1.97 µM (inactive); in the test with CAKI-1 it was 12.2 µM (inactive); in the test on SW-620 it was 0.146 µM (active); in the test with HCC 2998, 2.66 µM (inactive); in the test on SNB-75 it was 17.3 µM (inactive); with HT-29, 0.608 µM (active). For the same molecule, the GI50 is 20.6 µM (inactive) in the test on SF-295; 4.35 µM (inactive) with SK-MEL-5; 11.5 µM (inactive) in the test with NCI-H460; 0.807 µM (active) in the test on RPMI-8226; 0.76 µM (active) with UACC-62; 16.4 µM (inactive) in the test with UO-31. Also, the GI50 with K562 was 0.15 µM (active).

Regarding `COc1ccc2[nH]cc(/C=C(/C)c3ccncc3)c2c1`, the GI50 is 33.1 µM (inactive) in the test on OVCAR-5; 50.6 µM (inactive) with SNB-19; 13.2 µM (inactive) in the test with IGROV-1; 3.62 µM (inactive) with MOLT-4; 8.36 µM (inactive) in the test on A549; 2.63 µM (inactive) with NCI-H522. The GI50 in the test on EKVX was 15.6 µM (inactive); in the test on CAKI-1, 9.73 µM (inactive); in the test on SW-620 it was 3.83 µM (inactive); with HCC 2998 it was 8.24 µM (inactive); in the test with SNB-75 it was 2.38 µM (inactive); in the test on HT-29, 3.25 µM (inactive). For the same molecule, the GI50 is 6.35 µM (inactive) in the test on SF-295; 3.1 µM (inactive) in the test on SK-MEL-5; 3.57 µM (inactive) in the test on NCI-H460; 5.89 µM (inactive) in the test with RPMI-8226; 5.01 µM (inactive) in the test on UACC-62; 23.2 µM (inactive) in the test with UO-31. The GI50 in the test with K562 was 2.98 µM (inactive).

As for `O=C1/C(=C/c2ccc(Cl)cc2)N=C(c2ccccc2)N1/N=C/c1ccccc1O`, the GI50 is 12.7 µM (inactive) with OVCAR-5; > 100 µM (inactive) with SNB-19; 8.26 µM (inactive) in the test with IGROV-1; 12.6 µM (inactive) in the test on MOLT-4; 19.2 µM (inactive) in the test on A549; 13.4 µM (inactive) with NCI-H522. The GI50 in the test with EKVX is 4.66 µM (inactive); with CAKI-1, 7.6 µM (inactive); in the test with SW-620, > 100 µM (inactive); with RXF 393, 11.4 µM (inactive); in the test with SNB-75, 6.31 µM (inactive); in the test with HT-29, 21.1 µM (inactive). Besides, the GI50 is 11.9 µM (inactive) with SF-295; 15.1 µM (inactive) in the test on SK-MEL-5; 18 µM (inactive) with NCI-H460; 6.89 µM (inactive) in the test with RPMI-8226; 13.9 µM (inactive) in the test on UACC-62; 11.6 µM (inactive) with UO-31. In the test on K562, the GI50 was 9.12 µM (inactive).
